The text below walks through data of ChEMBL document CHEMBL1687723, “Effects of zidovudine and stavudine on mitochondrial DNA of differentiating 3T3-F442a cells are not associated with imbalanced deoxynucleotide pools” (Antimicrob Agents Chemother, 2009).

SMILES strings stand for the structures.

A short description of series [1]: Cytotoxicity against differentiated mouse 3T3-F442A cells assessed as depletion of mitochondrial DNA level at 1 uM by real-time PCR. The series is classed as cell-based. On the technique in general: Real-time PCR tracks product formation cycle by cycle.
A short description of series [2]: Cytotoxicity against differentiated mouse 3T3-F442A cells assessed as effect on total deoxynucleotides content at 1 uM after 2 to 10 days. The series is classed as cell-based.
The nature of series [3]: Cytotoxicity against differentiated mouse 3T3-F442A cells assessed as increase in total deoxynucleotides content at 10 uM after 2 to 10 days. The series is classed as cell-based.
Series [4] is described as follows: Cytotoxicity against differentiated mouse 3T3-F442A cells assessed as effect on total deoxynucleotides content at 10 uM after 2 to 10 days. It is filed as cell-based.
Series [5] in a line: Cytotoxicity against differentiated mouse 3T3-F442A cells assessed as depletion of mitochondrial DNA level at 10 uM by real-time PCR. The series is classed as cell-based.
A short description of series [6]: Cytotoxicity against differentiated mouse 3T3-F442A cells assessed as increase in TTP content after 10 days. It is filed as cell-based. Particulars: 240 h.
A short description of series [7]: Increase in mitochondrial DNA level in differentiated mouse 3T3-F442A cells at 10 uM by real-time PCR. The series is classed as ADME.
Series [8] is described as follows: Increase in mitochondrial DNA level in differentiated mouse 3T3-F442A cells at 1 uM by real-time PCR. It is filed as ADME.

In the case of `Cc1cn([C@H]2C=C[C@@H](CO)O2)c(=O)[nH]c1=O` [STAVUDINE], the Activity result in series [1] was “Non-toxic”; in series [2], “Non-toxic”; in series [3] it was “Toxic”; in series [4] it was “Non-toxic”; in series [5] it was “Toxic”.

Regarding `Cc1cn([C@H]2C[C@H](N=[N+]=[N-])[C@@H](CO)O2)c(=O)[nH]c1=O` [ZIDOVUDINE], the Activity in series [6] is given as 35%; in series [2] it was “Non-toxic”; in series [4] it was “Non-toxic”; in series [7], “Non-toxic”; in series [8], “Non-toxic”.
